Test results taken from paper PMC12278462, “Site-selective arylations of nature-inspired flavonoids or steroidal phenols via C—H or O—H activation” (Journal of Enzyme Inhibition and Medicinal Chemistry, 2025).

Legend:
MDA-MB-231 = test: MTT antiproliferative assay, MDA-MB-231; assay type: cell-based, human; settings: Homo sapiens; for inhibition at 10 µM: MDA-MB-231, 10 µM; for inhibition at 10 µM / inhibition at 30 µM: 72 h; for inhibition at 30 µM: MDA-MB-231, 30 µM; for IC50: MDA-MB-231, 72 h, read-out: calculated IC50 MDA-MB-231
Experimental: (§1) We evaluated the cytotoxic activity of the newly synthesised arylated compounds 13–17 by the MTT assay[37] on a panel of human adherent cancer cell lines. The panel included breast (MCF-7 and MDA MB-231) and cervical (HeLa, SiHa and C33A) cancer cell lines differing in receptorial or HPV status. Tumour selectivity was determined on the NIH/3T3 mouse fibroblast cell line.
(§2) Briefly, the panels of breast and cervical cancerous cell lines, differing by their receptorial and HPV status were used, precisely MCF-7 (ER, PR and HER2 positive) and MDA-MB-231 (TNBC) breast carcinoma and HeLa (HPV18+), SiHa (HPV16+), C33A (HPV-) cervical carcinoma cells. Non-cancerous NIH/3T3 mouse fibroblast cell line was used for selectivity study. MCF-7, MDA-MB-231, Hela and NIH/3T3 cell lines were purchased from ECACC (European Collection of Cell Cultures, Salisbury, UK), while SiHa and C33A from ATCC (American Tissue Culture Collection, LGC Standards GmbH, Wesel, Germany). Cells were maintained in Eagle's Minimum Essential Medium (EMEM, Capricorn Scientific GmbH, Ebsdorfergrund, Germany) supplemented with 10% heat-inactivated fetal bovine serum (FBS), 1% non-essential amino acids (NEAA), and 1% antibiotic-antimycotic mixture (penicillin–streptomycin). The cells were maintained at 37 °C in a humidified atmosphere containing 5% CO2.
(§3) For measurements cells were seeded for 96-well plates at a density of 5 000/well, except for C33A, which was seeded in 10 000cells for each well. After overnight standing cells were treated with 10 and 30 µM solutions for screening and increasing concentrations (0.1-30.0 µM) of the test compounds were used for concentration-response curves. After incubation for 72 hours under cell culturing condition 5 mg/ml MTT (3-(4,5-[…])-2,5-diphenyl-2H-tetrazolium bromide) solution was added for another 4 h. The precipitated formazan crystals were solubilized in DMSO and the absorbance was measured at 545 nm with a microplate reader (BMG Labtech, Ortenberg, Germany). Wells with untreated cells were utilized as control, and inhibition % were calculated by GraphPad Prism v 9.0 software (GraphPad Software, San Diego, CA, USA). If the growth-inhibition exceeded 70% at 30 µM concentration during the screening concentration-response curves were fitted and IC50 values were calculated by GraphPad Prism v 9.0. The experiments were performed with five parallel wells for each experimental condition and repeated at least twice.

MCF-7 = test: MTT antiproliferative assay, MCF-7; assay type: cell-based, human; settings: Homo sapiens; for inhibition at 10 µM: MCF7, 10 µM; for inhibition at 10 µM / inhibition at 30 µM: 72 h; for inhibition at 30 µM: MCF7, 30 µM; for IC50: MCF7, 72 h, read-out: calculated IC50 MCF-7
Experimental: as §1, §2, §3

17β-HSD1 = molecular target: T1, 17β-HSD1 (Homo sapiens, UniProt P14061); test: 17β-HSD1 enzymatic assay (E1 to E2, LC-MS/MS); assay type: biochemical; settings: for inhibition at 10 µM / inhibition at 100 µM: read-out: 17β-HSD1 Inhibition (% ± SD)
T1 sequence (P14061 1-328): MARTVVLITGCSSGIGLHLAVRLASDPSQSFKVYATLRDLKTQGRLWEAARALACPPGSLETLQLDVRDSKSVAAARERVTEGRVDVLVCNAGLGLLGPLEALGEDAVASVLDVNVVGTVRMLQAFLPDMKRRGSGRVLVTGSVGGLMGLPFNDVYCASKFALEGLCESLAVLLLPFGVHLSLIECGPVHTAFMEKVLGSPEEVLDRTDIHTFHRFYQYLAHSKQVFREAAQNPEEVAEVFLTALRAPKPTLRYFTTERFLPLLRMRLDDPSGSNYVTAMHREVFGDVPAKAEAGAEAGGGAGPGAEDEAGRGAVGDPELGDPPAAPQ
Experimental: The bacterial homogenate of E. coli overexpressing HSD17B1 was previously prepared as described in references ^S2,S3, and stored in aliquots at -80 °C. Before conducting experiments, aliquots were quickly thawed and diluted twice with 100 mM sodium phosphate buffer (pH 6.5; #14457, #1411007, Kemika), then kept on ice. The enzymatic assay was performed as described in ^S3. Briefly, a 1 mL enzymatic reaction mixture was prepared in 2 mL microcentrifuge tubes with the following components: 10 µL of the test inhibitor dissolved in dimethyl sulfoxide (DMSO; #276855, Sigma Aldrich) or 10 µL of DMSO for control samples, 5 µL of 14 µM substrate estrone (E1; CAS 53-16-7; #E2300-000, Steraloids), 10 µL of 10 mM NADPH (#AE14, Carl Roth) prepared in 100 mM sodium phosphate buffer, and 965 µL of 100 mM sodium phosphate buffer (pH 6.5). The reaction mixture was mixed thoroughly before adding 10 µL of bacterial homogenate. Immediately after addition, the tubes were transferred to an Eppendorf thermoshaker (#5382000031, Eppendorf) and incubated at 37 °C for 10 minutes. To stop the reaction, 60 µL of 1.26 M ascorbic acid (#A92902, Sigma Aldrich) in methanol (#34966, Honeywell/Riedel-de Haen) /acetic acid (#1.00063, Merck) (99:1, v/v) was added. The samples were then immediately processed using solid-phase extraction (SPE). The assay was repeated in three independent experiments, with each experiment performed in technical duplicate.
The preparation of samples for liquid chromatography-tandem mass spectrometry (LC-MS/MS) involved SPE. Stock solutions of E1 and 17β-estradiol (E2; CAS: 50-28-2; #142406, Steraloids) were prepared gravimetrically and dissolved in methanol (#34966, Honeywell/Riedel-de Haen). A working calibrator solution containing both steroids was then prepared by mixing appropriate volumes of the stock solutions in methanol to achieve a final concentration of 1 µg/mL for each steroid. Eight-point calibration curves (excluding zero and blank) were prepared in 100 mM sodium phosphate buffer (pH 6.5). For each 1 mL reaction mixture or calibrator, 10 µL of 100 ng/mL internal standard solution containing [2,3,4-13C3]-17β-estradiol (#719552, Sigma Aldrich) was added. Samples were mixed thoroughly and incubated at room temperature for 15 minutes.
SPE was performed using Strata X 33 µm polymeric reversed-phase columns (30 mg/mL tubes; #8B-S100-TAK, Phenomenex). The procedure involved the following steps: column conditioning with 1 mL of methanol, column equilibration with 1 mL of H₂O (#1.15333, Supelco), sample loading (1 mL sample or calibrator), column washing with 1 mL of H₂O, column drying under high vacuum for 10 minutes, and finally elution with 1 mL of methanol directly into HPLC glass vials (#702713, Macherey-Nagel GmbH/Co). The eluted samples were stored at -20 °C until LC-MS/MS analysis.

SiHa = test: MTT antiproliferative assay, SiHa; assay type: cell-based, human; settings: Homo sapiens, SiHa, 72 h; for IC50: read-out: calculated IC50 SiHa
Experimental: as §1, §2, §3

[1] = system: human adherent cancer cell lines (HeLa, SiHa, C33A, MCF-7 and MDA-MB-231); test: MTT assay, whole panel of cell lines; assay type: cell-based; settings: Homo sapiens; MTT, 72 h; range across cell lines; read-out: IC50 range over the investigated cell lines
Experimental: as §1, §2, §3

[2] = system: NIH/3T3 mouse fibroblast cell line; test: MTT assay, tumour selectivity on non-cancerous fibroblasts; assay type: cell-based; settings: Mus musculus; for inhibition at 10 µM: NIH3T3, 10 µM; for inhibition at 10 µM / inhibition at 30 µM: 72 h; for inhibition at 30 µM: NIH3T3, 30 µM; for IC50: NIH3T3, 72 h, read-out: calculated IC50 NIH/3T3
Experimental: as §1, §2, §3

C33A = test: MTT antiproliferative assay, C33A; assay type: cell-based, human; settings: Homo sapiens, C-33-A, 72 h; for IC50: read-out: calculated IC50 C33A
Experimental: as §1, §2, §3

HeLa = test: MTT antiproliferative assay, HeLa; assay type: cell-based, human; settings: Homo sapiens, HeLa, 72 h; for IC50: read-out: calculated IC50 HeLa
Experimental: as §1, §2, §3

cancer cell lines = settings: cited from earlier work

Row | Structure (SMILES) | inhibition at 10 µM (MDA-MB-231) [%] | inhibition at 30 µM (MDA-MB-231) [%] | IC50 (MDA-MB-231) [µM] | inhibition at 10 µM (MCF-7) [%] | inhibition at 30 µM (MCF-7) [%] | IC50 (MCF-7) [µM] | inhibition at 10 µM (SiHa) [%] | inhibition at 30 µM (SiHa) [%] | IC50 (SiHa) [µM] | IC50 [1] [µM] | inhibition at 10 µM [2] [%] | inhibition at 30 µM [2] [%] | IC50 [2] [µM] | inhibition at 10 µM (C33A) [%] | inhibition at 30 µM (C33A) [%] | IC50 (C33A) [µM] | inhibition at 10 µM (HeLa) [%] | inhibition at 30 µM (HeLa) [%] | IC50 (HeLa) [µM] | inhibition at 100 µM (17β-HSD1; 100 µM test concentration) [%] | further results
1 | CN(C)C(=O)Oc1cc2c(c(-c3ccc(C(C)(C)C)cc3)c1)[C@H]1CC[C@@]3(C)C(=O)CC[C@H]3[C@@H]1CC2 [13c, 3-(N,N-dimethylcarbamoyloxy)-1-(4-tert-butylphenyl)-13α-estra-1,3,5(10)-triene-17-one] | 43.8 | 92.9 | 9.09 | 58.4 | 102 | 5.7 | 54.8 | 101 | 4.74 | 4.74 to 10.1 | 47.3 | 97.7 | 8.75 | 41.1 | 93.6 | 10.1 | 53.8 | 98.6 | 7.9 | – | 17β-HSD1 Inhibition (% ± SD) (17β-HSD1; 10 µM test concentration): No inhibition; 17β-HSD1 Inhibition (% ± SD) (17β-HSD1; 100 µM test concentration): No inhibition
2 | C[C@@]12CC[C@@H]3c4c(cc(O)cc4-c4ccccc4)CC[C@H]3[C@@H]1CCC2=O [14a, 3-hydroxy-1-phenyl-13α-estra-1,3,5(10)-triene-17-one] | < 10 | < 10 | – | 13.1 | 15.4 | – | < 10 | < 10 | – | – | 13.5 | 22.5 | – | < 10 | 12.7 | – | 16.1 | 43 | – | 73.3 ± 7.5 | inhibition at 10 µM (17β-HSD1; 10 µM test concentration): 36.1 ± 10.2%
3 | C[C@@]12CC[C@@H]3c4c(cc(O)cc4-c4ccc(Br)cc4)CC[C@H]3[C@@H]1CCC2=O [14b, 1-(4-bromophenyl)-3-hydroxy-13α-estra-1,3,5(10)-triene-17-one] | < 10 | 46.8 | – | 35.1 | 81.5 | 13.5 | < 10 | 59.7 | – | – | 16.1 | 41.7 | – | 28.7 | 57 | – | 26.5 | 71.6 | 17.5 | 76.6 ± 5.1 | inhibition at 10 µM (17β-HSD1; 10 µM test concentration): 35.9 ± 8%
4 | CC(C)(C)c1ccc(-c2cc(O)cc3c2[C@H]2CC[C@@]4(C)C(=O)CC[C@H]4[C@@H]2CC3)cc1 [14c, 3-hydroxy-1-(4-tert-butylphenyl)-13α-estra-1,3,5(10)-triene-17-one] | < 10 | 91.3 | 20.5 | 35.4 | 101 | 10.6 | 20.2 | 99.6 | 12.5 | 10.6 to 20.5 | 16.1 | 98.3 | 13.7 | 25.4 | 89.8 | 14.4 | 21.9 | 98.3 | 13 | 77.6 ± 6.3 | IC50 (17β-HSD1; read-out: 17β-HSD1 calculated IC50 (95% CI)): 2.7 µM
5 | C[C@@]12CC[C@@H]3c4ccc(OCc5cn(Cc6ccccc6)nn5)cc4CC[C@H]3[C@@H]1CCC2=O [compound 5] | – | – | – | – | – | – | – | – | – | – | – | – | – | – | – | – | – | – | – | – | IC50 (cancer cell lines): 0.6 to 0.9 µM; IC50 (cytotoxic) (cancer cell lines): submicromolar
